Test [1] has as its target T1, human LXRalpha ligand binding domain (GAL4 fusion) (Homo sapiens, UniProt Q13133).
T1 construct: human LXRalpha (amino acid 205-447); expressed in transfected cells; host or cells: U2/OS osteosarcoma cells (electroporated with pSGGAL-LXRalpha)
T1 sequence (Q13133 205-447): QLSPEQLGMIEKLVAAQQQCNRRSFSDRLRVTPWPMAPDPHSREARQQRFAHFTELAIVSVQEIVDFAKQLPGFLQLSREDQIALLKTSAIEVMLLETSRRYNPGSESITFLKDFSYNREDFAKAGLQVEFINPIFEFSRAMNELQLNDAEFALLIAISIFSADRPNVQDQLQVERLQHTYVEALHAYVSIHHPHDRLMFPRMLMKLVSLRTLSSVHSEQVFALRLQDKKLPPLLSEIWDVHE
The test is described as follows: Transactivation (reporter gene) assay in U2/OS cells (LXRalpha). Type of test: cell-based. The note with it: LXRα, GAL4-LXR LBD luciferase reporter. As for the experimental part: Expression vectors were prepared by inserting the ligand binding domain cDNA (complementary DNA) of human LXRalpha (amino acid 205-447) and LXRbeta (amino acid 216-461) in frame with, 3′ to the yeast GAL4 transcription factor DNA binding domain and the nuclear localization signal from the T-antigen of Polyoma Virus in the eucaryotic expression vector pSG5 (Stratagene). The resulting expression vectors pSGGAL-LXRalpha and pSGGAL-LXRbeta were used in cotransfection experiments together with the pGL3 luciferase reporter plasmid containing a minimal SV40 promoter (Promega) and five copies of the UAS GAL4 recognition site. 2.5 μg pSGGAL-LXRalpha or beta were mixed with 25 μg pGL3 5×UAS and 22.5 μg pBluscript (Stratagene) in 0.95 mL ice cold PBS containing approx. 4-9 milj. U2/OS osteosarcoma cells. After a five minute incubation on ice the cell/DNA mixture was electroporated in 0.4 cm cuvettes at 960 μF, 230 V using a BioRad electroporator and diluted to 0.32 milj cells/mL in complete DMEM [Dulbecco's Modified Eagle Medium w/o phenol red, (Gibco 11880-028) including 10% FBS (Foetal Bovine Serum), 1% PEST (Penicillin Streptomycin), 20 mM Hepes, 2 mM L-Glutamine and 0.36% Glucose Gibco 31966-021] medium. […] Luciferase activity was measured as Luminescence in the Wallac Victor reader after 15 min. incubation at room temperature. […]
Background: A reporter such as luciferase makes a cellular process visible.

Test [2] deals with T2, human LXRalpha Ligand Binding Domain (amino acid 205-447) (Homo sapiens, UniProt Q13133).
T2 construct: human LXRalpha (amino acid 205-447); made in house; host or cells: E. coli
T2 sequence (Q13133 205-447): T1 sequence (Q13133 205-447)
Nature of the test: Co-activator recruitment assay (LXRalpha). Type of test: biochemical. To be noted: LXRα; SRC-1 peptide recruitment, time-resolved fluorescence; read-out: EC50 for LXRα in the coactivator recruitment assay. An excerpt: The Ligand Binding Domain (LBD) of human LXRalpha (amino acid 205-447) and LXRbeta (amino acid 216-461) was produced by recombinant techniques in E coli. A fragment of the human Steroid Receptor Co-Activator-1 (SRC-1) was produced as a synthetic peptide. An anti-6×His-antibody coupled with Europium (Eu^3+) was used to recognize the His-tag on the LXR-LBD and Allophycocyanin (APC) coupled to streptavidin was used to recognize the biotinylated SRC-1. Agonist binding to LXRalpha or LXRbeta enhances the affinity of LXR towards SRC-1 and thereby brings Eu^3+ and APC in close proximity. Eu^3+ is excited at 337 nm and emitts light at 620 nm. This emission, when in close proximity, excites APC to emit light at 665 nm.
Compounds (10 mM) in DMSO were diluted (1/3) in DMSO in 10 concentrations. This dilution plates were further diluted in buffer {20 mM [Tris(hydroxymethyl)aminomethane] pH 7.5, 0.125% CHAPS {3-[(3-Cholamidopropyl)dimethylammonio]-1-propanesulfonate}, 2 mM DTT (Dithiothreitol) and 0.05% BSA (Bovine Serum Albumin)} in order to reduce DMSO concentration, 0.5 μl to 13.5 μl. To this, 6 μl assay mix was added, giving an maximal assay concentration of 83 μM, and the plates (384-well V-groove plates) were incubated at room temperature for 60 to 80 min. […] Time-resolved fluorescence readings were done in a Wallac Victor reader at 665 nm followed by reading at 615 nm. […]

Molecules are shown by their SMILES.

`CCCCN1C(=O)C(NCCCOc2cccc(NC(C)=O)c2)=C(c2ccccc2)S1(=O)=O` [Example 7, N-(3-{3-[(2-Butyl-1,1-dioxido-3-oxo-5-phenyl-2,3-dihydroisothiazol-4-yl)amino]propoxy}phenyl)acetamide] showed an EC50 in test [1] of 270 nM.

For `CCCCCCNC1=C(c2ccccc2)S(=O)(=O)N(CCCC)C1=O` [Example 6, 2-Butyl-4-(hexylamino)-5-phenylisothiazol-3(2H)-one 1,1-dioxide], the EC50 in test [2] was 580 nM.

`O=C1C(NCCCCc2ccccc2)=C(c2ccccc2)S(=O)(=O)N1C1CCCC1` [Example 2, 2-Cyclopentyl-5-phenyl-4-[(4-phenylbutyl)amino]isothiazol-3(2H)-one 1,1-dioxide]: the EC50 in test [1] stood at 1360 nM.

For `CC(C)N1C(=O)C(NC2CCN(CCC#N)CC2)=C(c2ccccc2)S1(=O)=O` [Example 10, 3-{4-[(2-Isopropyl-1,1-dioxido-3-oxo-5-phenyl-2,3-dihydroisothiazol-4-yl)amino]piperidin-1-yl}propanenitrile], in test [2], the EC50 amounted to 1420 nM.

As usually defined, the EC50 is the concentration needed to bring the measured effect to its halfway point.

Values taken from patent publication US7960380B2, “Non-anilinic derivatives of isothiazol-3(2H)-one 1,1-dioxides as liver X receptor modulators” (AstraZeneca AB, priority 2005, dated 2011).
